Source: publication PMC12257535, “Distinct Interactions of Cannabinol and Its Cytochrome P450-Generated Metabolites with Receptors and Sensory Neurons” (Journal of Medicinal Chemistry, 2025)

Columns and labels:
human liver microsomes = assay: CBN metabolism by human liver microsomes, metabolite formation rate; type: in vitro ADME; settings: HLM, across different CBN concentrations
Experimental: We carried out concentration-dependent metabolism of CBN in the presence of 2 CYPs: 2C9 and 2D6. For the experiment, we used an enzyme concentration of 0.5 μM, reconstituted in the lipid system of POPC: POPS (8:2 v/v), and CPR at 0.6 μM dissolved in 0.1 M potassium phosphate buffer for CYP2C9. The substrate CBN was used in a range of 5–80 μM. The reaction mixture was incubated at 37 °C for 10 min, and then NADPH was added (1 mM), allowing the reaction to proceed for an additional 30 min. We quenched the reactions using a mixture of Hexane: Ethyl Acetate (8:2 v/v) and used the same composition to extract the CBN metabolites. We did a total extraction for three cycles. Following the extractions, the extractions were dried under a continuous stream of nitrogen, and the residual products were finally dissolved in 90% ethanol. We used CYP2D6 in a nanodisc for the metabolism of CBN. […] We carried out the same protocol for the metabolism of CBN using 1 μg of human liver microsome, CPR (0.6 μM) and NADPH (1 mM).
Samples were analyzed with the Sciex QTrap 6500+ system (Framingham, MA) with Waters Acquity I-class plus UPLC. Software Analyst 1.7.1 was used for data acquisition.
The LC separation was performed on a Waters Acquity UPLC BEH column (2.1 × 100 mm, […]) with mobile phase A (0.1% formic acid in water) and mobile phase B (0.1% formic acid in acetonitrile). The flow rate was 0.5 mL/min unless noted otherwise. […]
(§1) Mass spectra were acquired under positive electrospray ionization (ESI) with the ion spray voltage of 4500 V. The source temperature was 500 °C. […] Multiple reaction monitoring (MRM) was used for quantitation, as described in transitions CBN (m/z 311.2 → m/z 205.1), CBN-1′–OH (m/z 327.2 → m/z 253.1), CBN-11-OH (m/z 327.2 → m/z 291.1), CBN-p-quinone (m/z 325.2 → m/z 283.1) and CBC-d9 as internal standard (m/z 324.2→ m/z 202.1).
(§2) All data were analyzed using the software Skyline (daily version 22.2.1.278). […]

IL-6 = IL-6 ELISA in LPS-stimulated BV2 microglial cells; type: cell-based
Experimental: (§3) The BV2 microglial cells were subjected to the treatment of LPS both in the absence and presence of CBN and its selected metabolites. The seeding density for this assay was 1 × 10^5 cells/well. The cells were initially treated with the molecules for 4 h before being stimulated with LPS (25 ng/mL). The NO assay was performed 24 h after the treatment with LPS. The NO assay was performed according to the manufacturer’s protocol, and NO levels were quantified using nitrate standard curves. For the assay, 50 μL of cell media was used in a 96-well plate, and the absorbance was recorded at 540 nm. All measurements were performed in n = 5.
(§4) ELISA assays of IL-6, IL-10 (Item No. 88–7105), and Arginase 1 were performed using the same supernatant with which we had completed the NO and LDH assays. The culture media was collected, and the IL-6 (Thermo Scientific) and Arginase 1 (abcam) assays were performed using the specific monoclonal antibodies as per the manufacturer’s instructions.

CB2 receptor = CB2 receptor (Homo sapiens, UniProt P34972); assay: G protein nanoBRET assay, antagonist mode, CB2 receptor; settings: 50 μM after pretreatment with 1 μM CP-55940
IL-10 = IL-10 ELISA in LPS-stimulated BV2 microglial cells; type: cell-based; settings: LPS-stimulated BV2, 1–5 μM
Experimental: as §3, §4

CB1 receptor [1] = target: T1, CB1 receptor (Homo sapiens, UniProt P21554); assay: G protein nanoBRET assay, agonist mode, CB1 receptor; settings: 10 μM, ΔBRET; confirmed by concentration–response, only at high concentrations
Arginase 1 = Arginase 1 ELISA in LPS-stimulated BV2 microglial cells; type: cell-based
Experimental: as §3, §4

NO = NO levels in LPS-stimulated BV2 microglial cells; type: cell-based; settings: for change in NO levels compared to cells with only LPS treatment: LPS-stimulated BV2, 1, 2.5 and 5 μM
Experimental: as §3

CYP2D6 = target: T2, CYP2D6 (Homo sapiens, UniProt P10635); assay: CYP2D6 (nanodisc)-mediated CBN metabolism, kinetics of metabolite formation; type: in vitro ADME
T2 construct: polyhistidine (inferred from Ni-NTA purification and histidine elution); made in house; host or cells: E. coli (inferred from the pCWori vector and lysozyme/spheroplast preparation)
Experimental: We carried out concentration-dependent metabolism of CBN in the presence of 2 CYPs: 2C9 and 2D6. For the experiment, we used an enzyme concentration of 0.5 μM, reconstituted in the lipid system of POPC: POPS (8:2 v/v), and CPR at 0.6 μM dissolved in 0.1 M potassium phosphate buffer for CYP2C9. The substrate CBN was used in a range of 5–80 μM. The reaction mixture was incubated at 37 °C for 10 min, and then NADPH was added (1 mM), allowing the reaction to proceed for an additional 30 min. We quenched the reactions using a mixture of Hexane: Ethyl Acetate (8:2 v/v) and used the same composition to extract the CBN metabolites. We did a total extraction for three cycles. […]
Samples were analyzed with the Sciex QTrap 6500+ system (Framingham, MA) with Waters Acquity I-class plus UPLC. […]
as §1, §2

[2] = In vivo metabolism of CBN in female mice, plasma levels by targeted LC/MS/MS; set-up: species or system C57BL/6 mice; settings: for CBN-11-OH formation relative to CBN-1′-OH / CBN-11-OH formation relative to CBN-quinone: 0.5 h, plasma
Experimental: Initially dissolved in ethanol, CBN was combined with a volume of Tween 80, constituting 6% of the total solution volume for injection. Ethanol was eliminated via vacuum evaporation, and saline was added to prepare a 4 mg/mL solution. CBN (20 mg/kg) or vehicle was administered to C57BL/6 mice intravenously (IV) through the retro-orbital sinus or intraperitoneally (IP) at the lower right quadrant of the abdomen. Animals were euthanized at 30- or 120 min postinjection. Blood samples, collected via cardiac puncture into heparin tubes, underwent cold centrifugation at 4500 rpm for 15 min to isolate plasma. Plasma and whole liver samples were flash-frozen at −80 °C for subsequent analysis. Our decision to use female mice for this experiment was based on the availability of age-matched mice in the colony at the time of the experiment.
Mice were anaesthetized with a 3% inhalant dose of isoflurane until their respiratory rate decreased to 50% of baseline (i.e., 40–60 breaths/min) and the righting reflex was abolished. Mice were subsequently removed from the induction chamber and laid on their side. Using the index finger and thumb of the nondominant hand, the skin above and below the eye was retracted until a slight protrusion from the socket was noted. A 29G1/2 needle was inserted, bevel down, into the medial canthus at an approximate 45-degree angle until slight resistance was noted. Volume was slowly infused at a rate of 15uL/second. The needle was subsequently removed from the eye socket, and ophthalmic ointment was added.
Animals were gently restrained by scruff, and the injection site at the lower right quadrant of the abdomen was identified. The needle was inserted at a 60-degree angle to the body, and the plunger was lightly withdrawn to ensure the needle was not in contact with viscera or organs before dispensing volume.
200 μL plasma samples were collected and used for extraction using 1 mL of Hexane: Ethyl acetate (8:2 v/v) following a similar protocol described above.
Samples were analyzed using the Sciex QTrap 6500+ system (Framingham, MA) with Waters Acquity I- class plus UPLC. Software Analyst 1.7.1 was used for data acquisition.
The LC separation was performed on a Waters Acquity UPLC BEH column (2.1 × 100 mm, 1.7 μm) with mobile phase A (0.1% formic acid in water) and mobile phase B (0.1% formic acid in acetonitrile). The flow rate was 0.5 mL/min unless noted otherwise. The linear gradient was as follows: 0–0.5 min, 70%A; 2 min, 20%A; 4–4.2 min, 0%A; 4.21–5.2 min, 0%A (0.8 mL/min); 5.3–6.9 min, 70%A. The autosampler was set at 10 °C, and the column was kept at 50 °C. The injection volume was 5 μL.
Mass spectra were acquired under positive electrospray ionization (ESI) with the ion spray voltage of 4500 V. The source temperature was 500 °C. The curtain gas, ion source gas 1, and ion source gas 2 were 32, 50, and 70 psi, respectively. Multiple reaction monitoring (MRM) was used for quantitation with the MRM transition of CBN (m/z 311.2 → m/z 269.1), CBN-1′–OH (m/z 327.2 → m/z 253.1), CBN-11-OH (m/z 327.2 → m/z 128.1), CBN-p-quinone (m/z 325.2 → m/z 283.1) and EPEA-d4 as internal standard (m/z 350.3 → m/z 66.1).

DRG neurons = assay: Calcium responses of cultured DRG sensory neurons; type: cell-based; settings: cultured mouse DRG neurons, 50 μM × 15 s
Experimental: 9 CBN and 11-OH CBN activate DRG neurons with similar response magnitudes but differ in their percentage of neurons activated and time to peak response. Calcium response traces of representative cultured mouse DRG neurons following application of CBN (A) and 11-OH CBN (B) 50 μM × 15 s (arrow). […] Mean value ± SEM (CBN: n = 59; 11-OH CBN: n = 29, two-tailed t test, Prism GraphPad).

CB1 receptor [3] = target: T1, CB1 receptor; assay: G protein nanoBRET assay, antagonist mode, CB1 receptor; settings: 50 μM after pretreatment with 1 μM CP-55940
CYP3A4 = CYP3A4 (Homo sapiens, UniProt P08684, S18F); assay: NADPH oxidation assay with CYP3A4 nanodisc and CPR; settings: triplicate
not read [4] = substrate: CCCC[C@H](O)c1cc(O)c2c(c1)OC(C)(C)c1ccc(C)cc1-2; assay: not read; settings: other: CYP2C9, CBN 5–80 μM
Experimental: (§5) For the experiment, we used an enzyme concentration of 0.5 μM, reconstituted in the lipid system of POPC: POPS (8:2 v/v), and CPR at 0.6 μM dissolved in 0.1 M potassium phosphate buffer for CYP2C9. […] The reaction mixture was incubated at 37 °C for 10 min, and then NADPH was added (1 mM), allowing the reaction to proceed for an additional 30 min. […] We did a total extraction for three cycles. Following the extractions, the extractions were dried under a continuous stream of nitrogen, and the residual products were finally dissolved in 90% ethanol.
(§6) The LC separation was performed on a Waters Acquity UPLC BEH column (2.1 × 100 mm, 1.7 μM) with mobile phase A (0.1% formic acid in water) and mobile phase B (0.1% formic acid in acetonitrile). The flow rate was 0.5 mL/min unless noted otherwise. The linear gradient was as follows: 0–0.5 min, 70%A; 2 min, 20%A; 4–4.2 min, 0%A; 4.21–5.2 min, 0%A (0.8 mL/min); 5.3–6.9 min, 70%A. The autosampler was set at 10 °C, and the column was kept at 50 °C. The injection volume was 5 μL.
(§7) All data were analyzed using the software Skyline (daily version 22.2.1.278). It includes raw data import, peak integration, and a linear regression fit with 1/×2 weighting for the calibration curves.

not read [5] = substrate: CCCCCC1=CC(=O)C2=C(OC(C)(C)c3ccc(C)cc32)C1=O; assay: not read; settings: other: CYP2C9, CBN 5–80 μM
Experimental: as §5, §6, §7

Chain of CB2 receptor (P34972 whole entry): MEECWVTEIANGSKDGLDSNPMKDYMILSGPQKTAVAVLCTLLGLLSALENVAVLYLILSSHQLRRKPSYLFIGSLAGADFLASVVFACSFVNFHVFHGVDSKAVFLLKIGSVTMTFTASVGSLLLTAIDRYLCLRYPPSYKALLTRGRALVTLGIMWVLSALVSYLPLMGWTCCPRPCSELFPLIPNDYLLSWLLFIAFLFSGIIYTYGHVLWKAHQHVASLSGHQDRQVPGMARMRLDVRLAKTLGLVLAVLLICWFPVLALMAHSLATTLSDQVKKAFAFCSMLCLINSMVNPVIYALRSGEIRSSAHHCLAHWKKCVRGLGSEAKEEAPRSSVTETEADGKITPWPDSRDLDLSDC
T2 sequence (P10635 with tags, fused parts or gaps limits assumed): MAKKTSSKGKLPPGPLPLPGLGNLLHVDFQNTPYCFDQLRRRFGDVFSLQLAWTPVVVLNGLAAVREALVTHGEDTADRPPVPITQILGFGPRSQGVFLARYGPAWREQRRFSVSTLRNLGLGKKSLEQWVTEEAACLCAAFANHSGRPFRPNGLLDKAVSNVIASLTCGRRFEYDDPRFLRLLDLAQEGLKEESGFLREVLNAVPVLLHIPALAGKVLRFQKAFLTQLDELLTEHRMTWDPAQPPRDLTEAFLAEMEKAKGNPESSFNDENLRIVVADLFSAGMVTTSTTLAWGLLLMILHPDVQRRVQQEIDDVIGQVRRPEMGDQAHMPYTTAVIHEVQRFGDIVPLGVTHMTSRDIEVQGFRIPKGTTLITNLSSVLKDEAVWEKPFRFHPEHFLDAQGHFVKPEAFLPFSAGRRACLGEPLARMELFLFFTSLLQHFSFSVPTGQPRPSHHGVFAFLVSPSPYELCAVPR
T1 sequence (P21554 whole entry): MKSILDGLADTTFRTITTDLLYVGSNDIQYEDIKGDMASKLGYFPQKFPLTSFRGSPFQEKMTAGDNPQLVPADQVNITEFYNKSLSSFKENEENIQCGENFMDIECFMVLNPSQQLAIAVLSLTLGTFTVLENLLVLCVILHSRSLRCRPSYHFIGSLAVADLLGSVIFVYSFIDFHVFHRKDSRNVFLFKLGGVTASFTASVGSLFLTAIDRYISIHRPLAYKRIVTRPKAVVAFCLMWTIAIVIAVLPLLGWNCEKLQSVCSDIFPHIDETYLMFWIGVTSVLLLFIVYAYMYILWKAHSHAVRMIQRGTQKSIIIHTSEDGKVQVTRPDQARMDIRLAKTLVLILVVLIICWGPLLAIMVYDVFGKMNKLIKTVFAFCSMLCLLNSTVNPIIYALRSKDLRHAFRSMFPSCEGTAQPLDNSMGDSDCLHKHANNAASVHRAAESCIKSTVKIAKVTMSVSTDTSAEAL
Chain of CYP3A4 (P08684 with tags, fused parts or gaps S18F limits assumed): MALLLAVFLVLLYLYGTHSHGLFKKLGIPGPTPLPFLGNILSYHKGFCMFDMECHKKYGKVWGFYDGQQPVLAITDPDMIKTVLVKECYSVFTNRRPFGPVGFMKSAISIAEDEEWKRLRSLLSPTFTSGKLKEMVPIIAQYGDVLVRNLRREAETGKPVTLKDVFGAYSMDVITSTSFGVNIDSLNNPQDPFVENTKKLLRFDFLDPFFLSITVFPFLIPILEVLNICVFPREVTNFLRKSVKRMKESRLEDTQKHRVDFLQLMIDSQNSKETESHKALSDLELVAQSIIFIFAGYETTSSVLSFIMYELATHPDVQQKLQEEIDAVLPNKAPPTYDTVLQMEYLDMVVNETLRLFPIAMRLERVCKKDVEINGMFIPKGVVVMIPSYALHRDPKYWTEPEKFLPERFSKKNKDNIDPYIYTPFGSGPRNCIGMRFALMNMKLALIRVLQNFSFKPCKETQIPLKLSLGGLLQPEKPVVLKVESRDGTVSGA

CCCC[C@H](O)c1cc(O)c2c(c1)OC(C)(C)c1ccc(C)cc1-2 [CBN-1′–OH, 3-(1-hydroxypentyl)-6,6,9-trimethyl-6H-benzo[c]chromen-1-ol]
rate of metabolite formation from CBN (human liver microsomes): 9–9.4 × 10^3 pmol/min/nmol
IL-6 production (IL-6; LPS-stimulated BV2, concentration not stated): decrease in IL-6 production
inhibition of CB2 receptor (CB2 receptor): inverse agonist effect
IL-10 levels (IL-10): reversed
agonist effect at CB1 receptor, Gαo activation (CB1 receptor [1]): partial agonist effect
Arginase1 levels (Arginase 1): slight increase in Arginase1 levels
change in NO levels compared to cells with only LPS treatment (NO): no detectable significant (ns) change
formation of metabolite by CYP2D6 (CYP2D6): did not detect the formation
reduction of plasma level between 0.5 and 2 h ([2]; IV administration of CBN): 3 fold

CCCCCc1cc(O)c2c(c1)OC(C)(C)c1ccc(CO)cc1-2 [CBN-11-OH, cannabinol-11-hydroxy]
rate of metabolite formation from CBN (human liver microsomes): ≤ 3.4 × 10^4 pmol/min/nmol
IL-6 levels (IL-6; LPS-stimulated BV2, 5 μM): reduction in IL-6 levels
inhibition of CB2 receptor (CB2 receptor): complete inhibition
IL-10 levels (IL-10): concentration-dependent increase in IL-10 levels
Arginase1 levels (Arginase 1): mixed results
Ca2+ response (%) (DRG neurons): 31.6 ± 2.8%
DRG neuron activation (%) (DRG neurons): 5.4 ± 1.1%
Response Time (DRG neurons): 22.8 ± 2.2 s
[Ca2+]i responses, peak values (DRG neurons): 31.6 ± 2.8%
percentage of DRG neurons activated (DRG neurons): 5.4 ± 1.1%
time to peak response (DRG neurons): 22.8 ± 2.2 s
production of NO (NO; LPS-stimulated BV2, 5 μM): slightly lower production of NO
change in NO levels compared to cells with only LPS treatment (NO): no detectable significant (ns) change
reduction of plasma level between 0.5 and 2 h ([2]; IP administration of CBN): 2 fold
reduction of plasma level between 0.5 and 2 h ([2]; IV administration of CBN): 3 fold
CBN-11-OH formation relative to CBN-1′-OH ([2]; IV): ~89 times
CBN-11-OH formation relative to CBN-quinone ([2]; IV): ~55 times
CBN-11-OH formation relative to CBN-1′-OH ([2]; i.p.): ~82 fold
CBN-11-OH formation relative to CBN-quinone ([2]; i.p.): ~90 fold
inhibition of CB1 activation (CB1 receptor [3]): complete ablation of the BRET signal

CCCCCC1=CC(=O)C2=C(OC(C)(C)c3ccc(C)cc32)C1=O [CBN-quinone, 6,6,9-Trimethyl-3-pentyl-1H-benzo[c]chromene-1,4(6H)-dione]
rate of metabolite formation from CBN (human liver microsomes): further down by approximately three times the value of CBN-1′–OH
inhibition of CB2 receptor (CB2 receptor): partial inhibition
Vmax of metabolite formation from CBN (CYP2D6; CBN 5–80 μM): 5.6 pmol/min/nmol
reduction of plasma level between 0.5 and 2 h ([2]; IV administration of CBN): 9 fold

CC(C)C[C@H]1C(=O)N2CCC[C@H]2[C@]2(O)O[C@](NC(=O)[C@@H]3C=C4c5cccc6[nH]c(Br)c(c56)C[C@H]4N(C)C3)(C(C)C)C(=O)N12 [Bromocriptine, reference compound]
rate of NADPH oxidation in the presence of the compound (CYP3A4): 60.788±19.569 nmol/min/nmol

B1: CYP2C9 (Homo sapiens) (protein)
chain: MDSLVVLVLCLSCLLLLSLWRQSSGRGKLPPGPTPLPVIGNILQIGIKDISKSLTNLSKVYGPVFTLYFGLKPIVVLHGYEAVKEALIDLGEEFSGRGIFPLAERANRGFGIVFSNGKKWKEIRRFSLMTLRNFGMGKRSIEDRVQEEARCLVEELRKTKASPCDPTFILGCAPCNVICSIIFHKRFDYKDQQFLNLMEKLNENIKILSSPWIQICNNFSPIIDYFPGTHNKLLKNVAFMKSYILEKVKEHQESMDMNNPQDFIDCFLMKMEKEKHNQPSEFTIESLENTAVDLFGAGTETTSTTLRYALLLLLKHPEVTAKVQEEIERVIGRNRSPCMQDRSHMPYTDAVVHEVQRYIDLLPTSLPHAVTCDIKFRNYLIPKGTTILISLTSVLHDNKEFPNPEMFDPHHFLDEGGNFKKSKYFMPFSAGKRICVGEALAGMELFLFLTSILQNFNLKSLVDPKNLDTTPVVNGFASVPPFYQLCFIPV
Km (not read [4]): 2.3 µM
kcat (not read [4]): 12.1 pmol/min/nmol
Km (not read [5]): 2.5 µM
kcat (not read [5]): 4.4 pmol/min/nmol
